Results taken from patent US10111936B2, “Metal-glycoprotein complexes and photodynamic therapy of immune privileged sites with same” (Theralase Technologies, Inc., priority 2015, dated 2018).

Key:
AY27 cancer cells = test: Transferrin receptor antibody blocking, dark toxicity and PDT effect; assay type: cell-based; settings: 635 nm, 90 J cm−2, anti-transferrin receptor antibody
Experimental: The cells were incubated with anti-transferrin receptor antibody. The photosensitizer was pre-mixed in parallel with 0.4 mg/mL human transferrin and incubated for 1 hour at 37° C. In control group (no additional transferrin), equivalent volume of no-transferrin medium was added. The cells were washed of the excess of antibody (the cells incubated in medium without antibody served as comparison groups) and incubated with the pre-mixes for 30 minutes. After that, the medium was replaced with a fresh one (without photosensitizer and transferrin) and the cells were irradiated. On the next day (21 hours post-irradiation), viability of the cells was measured using Presto Blue viability assay, and percent of cell kill was calculated. The PDT effect shown is a result of subtraction of “photosensitizer alone” and “light alone” cell kill from the total PDT cell kill. Dark toxicity is shown on FIG. 20A, PDT effect is shown on FIG. 20B.
(§1) The cells were incubated with anti-transferrin antibody. […] On the next day (21 hours post-irradiation), viability of the cells was measured using Presto Blue viability assay, and percent of cell kill was calculated. […]
as §1

U87 cells = test: Intracellular uptake by ICP-MS, cancer cells; assay type: cell-based, human; settings: 200 uM photosensitizer, 0.8 mg/mL transferrin, 4 hours
Experimental: (§2) Cell culture (U87 cells) was exposed to 200 uM of the photosensitizer without additional transferrin and in the presence of 0.8 mg/mL transferrin for 4 hours. The incubation mix was washed away and the cells were collected, counted, and lysed. Lysed solution was dissolved in nitric acid and appropriate metals concentration was measured using inductively coupled plasma mass spectrometry. The metals concentration is directly proportional to the concentration of the photosensitizer.

normal human fibroblasts = test: Uptake by normal cells by ICP-MS; assay type: cell-based; settings: 200 uM, 0.8 mg/mL transferrin, 4 hours, much lesser extent than cancer cells
Experimental: as §2, with “(normal human fibroblasts)” for “(U87 cells)”

[1] = In vivo tissue uptake, tumor versus muscle; settings: 10 mg/kg i.v.; transferrin 1 mg/kg
Experimental: Transferrin was dissolved in 40% PG in phosphate buffer (pH=7.0)+100 mM NaCl (0.1 mg/100 uL) and added to the photosensitizer solution (to achieve 10 mg/kg dose). The mixture was incubated for 1 hour prior to injection, and 100 uL of the mixture was injected i.v. to each animal.

Question: With `[Os+2].c1ccc2cc3nc4c5cccnc5c5ncccc5c4nc3cc2c1.c1ccc2nc(-c3ccc4ccccc4n3)ccc2c1.c1ccc2nc(-c3ccc4ccccc4n3)ccc2c1` [TLDOsH2dppn] as the compound, how does the “effect of blocking transferrin receptors on dark toxicity and PDT effect” value (AY27 cancer cells) read?
Answer: prevents decrease in dark toxicity and facilitation of PDT effect

Question: And the “uptake into cancer cells, effect of transferrin” value (U87 cells)?
Answer: transferrin facilitated uptake

Question: And the “cellular accumulation in normal cells, effect of transferrin” value (normal human fibroblasts)?
Answer: higher in the presence of transferrin

Question: What about the “uptake of the photosensitizer into tissues, effect of transferrin” value [1] of the same compound?
Answer: increases uptake
